Where two headings read alike, the source gives them in different places.
What was measured:
[1] = test system: Trypanosoma brucei brucei 427 cells; experiment: T. brucei culture and assay (PrestoBlue); type: cell-based
[2] = test system: Leishmania amazonensis promastigotes expressing beta-lactamase; experiment: microbe, parasite or virus in culture; type: cell-based; conditions: for IC50: Leishmania amazonensis
[3] = test system: rat skeletal muscle cell line, L6; experiment: cells; type: cell-based
[4] = test system: Trypanosoma cruzi Tulahuen cells expressing beta-galactosidase; experiment: T. cruzi intracellular assay (beta-galactosidase, L6 host cells); conditions: for Selectivity L6/Tc-I: Table 3B; for Selectivity L6/Tc-I / Selectivity L6/TC-I: estimated from highest L6 dose tested where no L6 IC50; for IC50: Trypanosoma cruzi, TULAHUEN; for Selectivity L6/TC-I: Table 3A
Method: Trypanosoma cruzi Tulahuen cells expressing beta-galactosidase (Buckner et al., Antimicrob. Agents Chemother. 40 (1996) 2592-2597) were cultured using the L6 cell line as a host cell. Adherent L6 cultures were infected with freshly burst T. cruzi trypomastigotes. Approximately 4-6 days later freshly burst trypomastigotes were collected and used to maintain cultures For assays, trypomastigotes were centrifuged to a loose pellet and incubated for 3 hours to allow the trypomastigote forms to swim out of the pellet. Cells were adjusted for addition to intracellular or extracellular assays. […] For intracellular assays, cells were added to adherent L6 cells using an infection ratio of 1:1 and immediately treated with compounds. At 96 hours incubations, a solution containing chlorophenol-red-B-D-beta-galactopyranosidase (Sigma) and a lysis agent were added. After an additional 2 hour incubation, a spectrophotometer was used to quantify the resulting color change (or lack thereof) which was used to calculate inhibition.
The percentage of cell inhibition was calculated using the formula: Percent Inhibition=1−((Treated Sample value−Medium only value)/(Untreated value−Medium only value))×100. Results are expressed as the mean of two or more independent trials.

[5] = Table 2, L6 IC50 / T. brucei IC50
[6] = Table 3B, estimated from highest L6 dose tested where no L6 IC50
[7] = Trypanosoma brucei, Table 1, mean of 2(+) independent trials, read-out: IC50 T. brucei
[8] = Table 2, L6 IC50 / L. amazonensis IC50
[9] = Rattus norvegicus, Table 1, read-out: IC50 Toxicity (L6)
[10] = Rattus norvegicus, Table 3B, weighted means of two or more independent trials, read-out: IC50 L6
[11] = Table 2, L6 mammalian cells, read-out: IC50 Toxicity (L6)
[12] = Table 1, intracellular T. cruzi IC50
[13] = Table 2, L6 IC50 / T. cruzi IC50 (intracellular assay)
[14] = read-out: IC50 T. cruzi, Table 1, intracellular assay, mean of 2(+) trials (^c one trial)
[15] = read-out: IC50 T. cruzi, Table 2, intracellular assay, mean of 2(+) independent trials
[16] = read-out: IC50 TC-I, Table 3B, weighted means of two or more independent trials
[17] = Trypanosoma brucei, read-out: T. brucei IC50 dose
[18] = Rattus norvegicus, Table 3A, weighted means of two or more independent trials, read-out: IC50 L6
[19] = read-out: IC50 TC-I, Table 3A, weighted means of two or more independent trials
[20] = Table 2, mean of 2(+) independent trials, read-out: IC50 T. brucei

SMILES | IC50 [1, 7] | IC50 ([2]; read-out: IC50 L. amaz.) | Selectivity L6/La ([2]; Table 1) | IC50 [3, 9] | IC50 [3, 10] | melting point | IC50 [4, 14] | IC50 [4, 15] | IC50 [4, 16] | other results
O=C1/C(=C/c2ccsc2)Oc2ccccc21 [Aurone 3004, (Z)-2-(thiophen-3-ylmethylene)benzofuran-3(2H)-one] | 38.7 µM | 24.2 µM | >4.13 | > 100 µM | > 100 µM | 125 to 126 °C | 9.02 µM | 9.02 µM | 9.02 µM | activity against T. brucei [1]: moderate activity; Selectivity L6/Tb ([1]; Table 1): >2.58; Selectivity L6/Tb [1, 5]: >2.58; Selectivity L6/Tb [1, 6]: >2.58; Selectivity L6/La [2, 8]: >4.13; IC50 [3, 11]: > 100 µM; Selectivity L6/Tc [4, 12]: >11.09; Selectivity L6/Tc [4, 13]: >11.09; Selectivity L6/Tc-I [4]: >11.09; IC50 ([4]; read-out: T. cruzi IC50 dose): 9.02 µM
N#Cc1ccc(/C=C2\Oc3cc(O)ccc3C2=O)cc1 [Aurone 9076, (Z)-4-((6-hydroxy-3-oxobenzofuran-2(3H)-ylidene)methyl)benzonitrile] | > 50 µM | 2.44 µM |  | > 100 µM |  | 112 to 115 °C | 26.3 µM | 26.3 µM |  | 
O=C1/C(=C/c2ccccn2)Oc2ccccc21 [Aurone 9051, (Z)-2-(pyridin-2-ylmethylene)benzofuran-3(2H)-one] | 23.2 µM | 6.26 µM |  | 79.6 µM | 79.6 µM | 119 to 121 °C | 19.4 µM | 19.4 µM | 19.4 µM | IC50 [1, 17]: 23.2 µM
O=C1/C(=C/c2cc(Br)ccc2Br)Oc2ccccc21 [Aurone 3003, (Z)-2-(2,5-dibromobenzylidene)benzofuran-3(2H)-one] | > 50 µM | 16 µM | >6.24 | > 100 µM |  | 181 to 182 °C | > 50 µM |  |  | IC50 [3, 18]: > 100 µM; IC50 [4, 19]: > 50 µM
Cc1[nH]cnc1/C=C1\Oc2ccccc2C1=O [Aurone 9059, (Z)-2-((5-methyl-H-imidazol-4-yl)methylene)benzofuran-3(2H)-one] | > 50 µM | 3.96 µM | 80.99 | 321 µM | 321 µM | 180 to 183 °C | 5.25 µM | 5.25 µM | 5.25 µM | IC50 [1, 20]: > 50 µM; IC50 [1, 17]: > 50 µM; Selectivity L6/La [2, 8]: 80.99; selectivity for T. cruzi (L6/Tc) [4]: 61.09; Selectivity L6/Tc [4, 12]: 61.09; Selectivity L6/Tc [4, 13]: 61.09; Selectivity L6/Tc-I [4]: 61.09; IC50 ([4]; read-out: T. cruzi IC50 dose): 5.25 µM
O=C1/C(=C/c2cccs2)Oc2cc(O)ccc21 [Aurone 2901, (Z)-6-hydroxy-2-(thiophen-2-ylmethylene)benzofuran-3(2H)-one] | > 50 µM | 19.4 µM |  | > 100 µM |  | 300 to 303 °C | > 50 µM |  |  | 
COc1cccc(/C=C2\Oc3ccc(C)cc3C2=O)c1O [Aurone 4003, (Z)-2-(2-hydroxy-3-methoxybenzylidene)-5-methylbenzofuran-3(2H)-one] | 27.7 µM | 13.4 µM | >7.45 | > 100 µM |  | 134 to 137 °C | > 50 µM |  |  | Selectivity L6/Tb ([1]; Table 1): >3.61
O=C1/C(=C/c2cc(Br)c(Br)s2)Oc2ccccc21 [Aurone 9050, (Z)-2-((4,5-dibromothiophen-2-yl)methylene)benzofuran-3(2H)-one] | > 50 µM | 9.24 µM |  | > 100 µM | > 100 µM | 185 to 190 °C | > 50 µM | > 50 µM | > 50 µM | 
COC(=O)c1ccc(/C=C2\Oc3ccccc3C2=O)cc1 [Aurone 9047, Methyl (Z)-4-((3-oxobenzofuran-2(3H)-ylidene)methyl)benzoate] | > 50 µM | 24.2 µM | >4.13 | > 100 µM |  | 144 to 147 °C | > 50 µM |  |  | IC50 [3, 18]: > 100 µM; IC50 [4, 19]: > 50 µM
O=C1/C(=C/c2cccnc2)Oc2ccccc21 [Aurone 9253, (Z)-2-(pyridin-3-ylmethylene)benzofuran-3(2H)-one] | > 50 µM | 7.38 µM |  | < 100 µM | > 100 µM | 122 to 123 °C | 17.8 µM | 17.8 µM | 17.8 µM | IC50 ([1]; Trypanosoma brucei, read-out: IC50 TB): > 50 µM
CCc1ccc(/C=C2\Oc3ccccc3C2=O)cc1 [Aurone 8001, (Z)-2-(4-ethylbenzylidene)benzofuran-3(2H)-one] | 46.5 µM | 6.42 µM |  | > 100 µM |  | 71 to 74 °C | 11.4 µM | 11.4 µM |  | IC50 ([2]; read-out: IC50 L. amaz. (footnote c: value obtained from one trial)): 6.42 µM
CCCCc1ccc(/C=C2\Oc3ccccc3C2=O)cc1 [Aurone 3009, (Z)-2-(4-butylbenzylidene)benzofuran-3(2H)-one] | > 50 µM | 2.36 µM | 14.84 | 35 µM |  | 80 to 81 °C | > 50 µM | > 50 µM |  | IC50 [1, 20]: > 50 µM; Selectivity L6/La [2, 8]: 14.84; IC50 [3, 18]: 35 µM; Selectivity L6/TC-I [4]: 4.38; IC50 [4, 19]: 7.99 µM
O=C1/C(=C/c2ccc(CO)o2)Oc2ccccc21 [Aurone 9067, (Z)-2-((5-(hydroxymethyl)furan-2-yl)methylene)benzofuran-3(2H)-one] | 34.9 µM | < 1 µM |  | 31.1 µM | 31.1 µM | 61 to 63 °C | 12.5 µM | 12.5 µM | 12.5 µM | IC50 ([3]; Rattus norvegicus, read-out: toxicity in L6): 31.1 µM; IC50 ([4]; read-out: T. cruzi IC50 dose): 12.5 µM
O=C1/C(=C/c2cccs2)Oc2c1ccc(O)c2O [Aurone 1001, (Z)-6,7-dihydroxy-2-(thiophen-2-ylmethylene)benzofuran-3(2H)-one] | 25.3 µM | 22.9 µM |  | 50.6 µM |  | 168 to 170 °C | > 50 µM |  |  | 
COc1cc(Br)c(/C=C2\Oc3ccccc3C2=O)cc1OC [Aurone 9056, (Z)-2-(2-bromo-4,5-dimethoxybenzylidene)benzofuran-3(2H)-one] | 21.9 µM | 1.83 µM |  | > 100 µM |  | 144 to 147 °C | 36 µM | 36 µM |  | 
O=C1/C(=C/c2cc3ccccc3o2)Oc2ccccc21 [Aurone 3002, (Z)-2-(benzofuran-2-ylmethylene)benzofuran-3(2H)-one] | 20.2 µM | 6.48 µM | >15.43 | > 100 µM | > 100 µM | 145 to 150 °C | 6.44 µM | 6.44 µM | 6.44 µM | Selectivity L6/Tb ([1]; Table 1): >4.96; Selectivity L6/Tb [1, 5]: >4.96; Selectivity L6/Tb [1, 6]: >4.96; Selectivity L6/La [2, 8]: >15.43; IC50 [3, 11]: > 100 µM; Selectivity L6/Tc [4, 12]: >15.53; Selectivity L6/Tc [4, 13]: >15.53; Selectivity L6/Tc-I [4]: >15.53
COc1ccc2c(c1)O/C(=C\c1ccc(C)cc1)C2=O [Aurone 5002, (Z)-6-methoxy-2-(4-methylbenzylidene)benzofuran-3(2H)-one] | 40.7 µM | 10.5 µM |  | 183 µM |  | 115 to 122 °C | > 50 µM | > 50 µM |  | 
Cc1ccc(/C=C2\Oc3cc(O)ccc3C2=O)cc1 [Aurone 2904, (Z)-6-hydroxy-2-(4-methylbenzylidene)benzofuran-3(2H)-one] | > 50 µM | 5.63 µM |  | 70.3 µM |  | 258 to 264 °C | > 50 µM | > 50 µM |  | 
O=C1/C(=C/c2ccc(I)cc2)Oc2ccccc21 [Aurone 9029, (Z)-2-(4-iodobenzylidene)benzofuran-3(2H)-one] | > 50 µM | 3.11 µM | >32.15 | > 100 µM |  | 176 to 179 °C | 11.1 µM | 11.1 µM |  | IC50 [1, 20]: > 50 µM; Selectivity L6/La [2, 8]: >32.15; IC50 [3, 18]: > 100 µM; IC50 [3, 11]: > 100 µM; Selectivity L6/Tc [4, 12]: >9.04; Selectivity L6/Tc [4, 13]: >9.04; Selectivity L6/TC-I [4]: >9.04; IC50 [4, 19]: 11.1 µM
O=C1/C(=C/c2ccc(C(F)(F)F)cc2)Oc2ccccc21 [Aurone 9084, (Z)-2-(4-(trifluoromethyl)benzylidene)benzofuran-3(2H)-one] | 20.4 µM | 2.94 µM |  | > 400 µM |  | 98 to 102 °C | 9.38 µM | 9.38 µM |  | 
O=C1/C(=C/c2ccc(O)cc2)Oc2ccccc21 [Aurone 9068, (Z)-2-(4-hydroxybenzylidene)benzofuran-3(2H)-one] | > 50 µM | 1.57 µM |  | > 200 µM |  | 258 to 260 °C | > 50 µM | > 50 µM |  | 

— patent publication US20200399238A1, “THERAPEUTIC AURONES” (MIDDLE TENNESSEE STATE UNIVERSITY, priority 2016, published 2020)
